No end group written: not given here.
Key:
[1] = biological target: T1, human CRHR2 (Homo sapiens, UniProt Q13324); assay: Radioligand binding, membranes of SK-N-MC cells transfected with human CRHR2, [125I]-anti-sauvagine-30
T1 construct: expressed in transfected cells
T1 sequence (Q13324 1-411): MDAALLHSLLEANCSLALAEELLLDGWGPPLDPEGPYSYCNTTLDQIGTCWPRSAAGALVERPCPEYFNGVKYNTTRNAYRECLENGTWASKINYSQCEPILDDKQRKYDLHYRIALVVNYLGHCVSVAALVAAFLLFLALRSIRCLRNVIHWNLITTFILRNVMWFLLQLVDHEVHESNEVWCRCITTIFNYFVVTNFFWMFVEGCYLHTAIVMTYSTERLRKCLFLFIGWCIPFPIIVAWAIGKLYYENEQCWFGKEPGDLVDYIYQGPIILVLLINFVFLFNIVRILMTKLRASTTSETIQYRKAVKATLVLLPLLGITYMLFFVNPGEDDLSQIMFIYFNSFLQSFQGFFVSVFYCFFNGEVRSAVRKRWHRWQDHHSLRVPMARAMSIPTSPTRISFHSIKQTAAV
Protocol: The binding profile of h-SCP (SEQ ID NO:1) at CRHR2 was determined in radioligand binding studies in a membrane preparation of SK-N-MC cells stably transfected with human CRHR2 using [^125I]-anti-sauvagine-30 as the radiolabel. […] The solution was then homogenized with a Polytron tissue grinder at a setting of 10 and 7×3 s (Brinkmann Instruments, Westbury, N.Y.). The homogenate was centrifuged at 4° Celsius at 800×g for 5 min with the pellet being discarded. The supernatant was re-centrifuged at 26,892×g for 25 min at 4° Celsius with the final pellet being re-suspended in assay buffer. All binding assays were conducted in 96-well Multiscreen GF/B filter plates (Millipore, Billericay, Mass., U.S.A.) that were pre-soaked in assay buffer with 0.3% PEI for 1 hour. […] The bound radioactivity was separated by filtration using a Multiscreen Resist manifold (Millipore Corp., Billerica, Mass., U.S.A). The filters were washed three times with ice-cold PBS at pH 7.5 and radioactivity retained on the filters was quantified by its liquid scintillation measured by a TopCount counter (Packard BioScience, Boston, Mass., U.S.A). All experiments were performed in triplicate. Data from individual competition curves were expressed as the percentage of specific [^125I]-anti-sauvagine-30 or)[^125I]-([…])-sauvagine binding (B) within each experiment.

[2] = biological target: T2, CRHR1 (Homo sapiens, UniProt P34998); assay: Radioligand binding CRHR1 assay, [125I]-(Tyr0)-sauvagine; design: expressed in transfected cells; host or cells: cell membranes
T2 sequence (P34998 24-415): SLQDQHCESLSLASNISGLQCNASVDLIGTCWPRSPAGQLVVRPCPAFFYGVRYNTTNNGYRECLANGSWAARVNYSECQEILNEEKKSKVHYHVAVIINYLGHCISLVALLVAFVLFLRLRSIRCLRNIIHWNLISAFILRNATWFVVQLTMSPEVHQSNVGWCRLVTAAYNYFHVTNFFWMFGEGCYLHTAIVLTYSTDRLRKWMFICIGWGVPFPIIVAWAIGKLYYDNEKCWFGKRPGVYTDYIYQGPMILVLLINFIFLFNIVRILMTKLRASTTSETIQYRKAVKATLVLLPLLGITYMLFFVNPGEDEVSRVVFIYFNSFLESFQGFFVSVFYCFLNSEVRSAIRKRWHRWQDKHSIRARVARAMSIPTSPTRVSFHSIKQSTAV
Protocol: The solution was then homogenized with a Polytron tissue grinder at a setting of 10 and 7×3 s (Brinkmann Instruments, Westbury, N.Y.). The homogenate was centrifuged at 4° Celsius at 800×g for 5 min with the pellet being discarded. […] All binding assays were conducted in 96-well Multiscreen GF/B filter plates (Millipore, Billericay, Mass., U.S.A.) that were pre-soaked in assay buffer with 0.3% PEI for 1 hour. […] The bound radioactivity was separated by filtration using a Multiscreen Resist manifold (Millipore Corp., Billerica, Mass., U.S.A). The filters were washed three times with ice-cold PBS at pH 7.5 and radioactivity retained on the filters was quantified by its liquid scintillation measured by a TopCount counter (Packard BioScience, Boston, Mass., U.S.A). All experiments were performed in triplicate.

[3] = biological target: T1, human CRHR2; assay: cAMP assay in h-CRHR2 transfected SK-N-MC cells; format: cell-based; conditions: for nH: Table 12, Hill slope; for Log DR: Table 13, h-SCP control pA50 minus test compound pA50 within same assay batch
Method in brief: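 SK-N-MC cells stably expressing human CRHR2 were stimulated with peptides (1 pM-10 μM) for 60 min at 37 °C with 10 μM IBMX, then lysed in 0.5 M HCl. cAMP was quantified by competitive [125I]-cAMP antibody flash-plate assay. Hill-equation fits gave A50/pA50; Log DR was taken relative to h-SCP control in the same batch.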

[4] = Table 15, slope of competition curve

| Log DR [3] | Compound | further results |
| --- | --- | --- |
| – | CC[C@H](C)[C@H](NC(=O)[C@@H](NC(=O)[C@H](CC(=O)O)NC(=O)[C@H](CC(C)C)NC(=O)[C@H](CC(C)C)NC(=O)[C@H](CC(C)C)NC(=O)[C@H](CCCNC(=N)N)NC(=O)[C@H](CC(N)=O)NC(=O)[C@H](CC(N)=O)NC(=O)[C@H](C)NC(=O)[C@H](C)NC(=O)[C@H](CCC(N)=O)NC(=O)[C@H](CCC(N)=O)NC(=O)[C@H](CCCCN)NC(=O)[C@H](CCC(=O)O)NC(=O)[C@H](CCCCN)NC(=O)[C@H](CCC(=O)O)NC(=O)[C@H](CCC(N)=O)NC(=O)[C@H](CCCCN)NC(=O)[C@H](CCC(=O)O)NC(=O)[C@@H](NC(=O)[C@H](CCC(=O)O)NC(=O)[C@@H](NC(=O)[C@H](CCSC)NC(=O)[C@H](CCCCN)NC(=O)[C@H](CCCNC(=N)N)NC(=O)[C@H](CC(C)C)NC(=O)[C@H](CC(C)C)NC(=O)[C@H](Cc1c[nH]cn1)NC(=O)[C@H](N)Cc1ccccc1)[C@@H](C)CC)[C@@H](C)CC)[C@@H](C)O)C(N)=O [SEQ ID NO: 118, FHLLRKMIEIEKQEKEKQQAANNRLLLDTI-NH2] | Ki [1]: 16.6 nM; CRHR2 nH [1, 4]: 1.15 ± 0.12; Ki [2]: 1550 nM; CRHR1 nH [2, 4]: 1.00 ± 0.49; Kb [3]: 15.1 nM |
| – | TKFTLSLDVPTNIMNLLFNIAKAKNLRAQAAANAHLMAQI-OH [SEQ ID NO: 113, TKFTLSLDVPTNIMNLLFNIAKAKNLRAQAAANAHLMAQI, reference compound] | nH [3]: 1.07; fold less potent than the amidated parent peptide ([3]; versus h-SCP (SEQ ID NO:1)): approximately 200 fold |
| 0.41 | TKFTLSLDVPTNIMNLLFNIAKAKNLRAQAAANAHLMCQI-NH2 [SEQ ID NO: 39, TKFTLSLDVPTNIMNLLFNIAKAKNLRAQAAANAHLMCQI-NH2] | – |
| 0.70 | TKFTLSLDVPTNIMNLLFNIAKAKNLRAQAAANCHLMAQI-NH2 [SEQ ID NO: 35, TKFTLSLDVPTNIMNLLFNIAKAKNLRAQAAANCHLMAQI-NH2] | – |
| 0.45 | TKFTLSLDVPTNIMNLLFNIAKAKNLRAQAACNAHLMAQI-NH2 [SEQ ID NO: 33, TKFTLSLDVPTNIMNLLFNIAKAKNLRAQAACNAHLMAQI-NH2] | – |
| 0.11 | TKFTLSLDVPTNIMNLLFNIAKAKNLRAQACANAHLMAQI-NH2 [SEQ ID NO: 32, TKFTLSLDVPTNIMNLLFNIAKAKNLRAQACANAHLMAQI-NH2] | – |
| 1.61 | TKFTLSLDVPTNIMNLLFNIAKAKNLRAQCAANAHLMAQI-NH2 [SEQ ID NO: 31, TKFTLSLDVPTNIMNLLFNIAKAKNLRAQCAANAHLMAQI-NH2] | – |
| 0.00 | TKFTLSLDVPTNIMNLLFNIAKAKNLRCQAAANAHLMAQI-NH2 [SEQ ID NO: 29, TKFTLSLDVPTNIMNLLFNIAKAKNLRCQAAANAHLMAQI-NH2] | – |
| 0.74 | TKFTLSLDVPTNIMNLLFNIAKCKNLRAQAAANAHLMAQI-NH2 [SEQ ID NO: 24, TKFTLSLDVPTNIMNLLFNIAKCKNLRAQAAANAHLMAQI-NH2] | – |
| 0.52 | TKFTLSLDVPTNIMNLLFNICKAKNLRAQAAANAHLMAQI-NH2 [SEQ ID NO: 22, TKFTLSLDVPTNIMNLLFNICKAKNLRAQAAANAHLMAQI-NH2] | – |
| – | TLSLDVPTNIMNLLFNIAKAKNLRAQAAANAHLMAQI-NH2 [SEQ ID NO: 108, TLSLDVPTNIMNLLFNIAKAKNLRAQAAANAHLMAQI-NH2] | nH [3]: 0.82 |
